The series can be described thus: Tablet dissolution in 0.01M HCl+1% sodium laurylsulfate, 50 rpm. Format: physicochemical. Here is the method:
The tablets were measured on dissolution in a medium of 0.01M HCl+1% sodium laurylsulfate (SLS), 50 rpm. The results reported in the following tables are the percentages of release drug substance. Exp 1, exp 2, etc. refer to a first, a second, etc. experiment under the same conditions.
Two coating trials were performed using the tablet core samples with a compression force of 1030 daN and 1266 daN. The coating material was polyvinyl alcohol (PVA). The film coated tablets were measured on dissolution in medium 0.01 M HCl+1% SLS, 50 rpm.

As to `CC(C)CN(C[C@@H](O)[C@H](Cc1ccccc1)NC(=O)O[C@H]1CO[C@H]2OCC[C@H]21)S(=O)(=O)c1ccc(N)cc1` [TMC114, (1S,2R,3R,3aS,6aR)-{3-[(4-aminobenzenesulfonyl)isobutyl-amino]-1-benzyl-2-hydroxypropyl}carbamic acid hexahydrofuro[2,3-b]furan-3-yl ester monoethanolate], under “PVA film coated tablets”, the “impact of the coating on the release” value was “only a minor impact”.

Take `Cc1cc(C#N)cc(C)c1Oc1nc(Nc2ccc(C#N)cc2)nc(N)c1Br` [TMC125, 4-[[6-amino-5-bromo-2-[(4-cyanophenyl)amino]-4-pyrimidinyl]oxy]-3,5-dimethylbenzonitrile]: the “release out of the coated tablets compared to the cores” value (PVA film coated tablets) is recorded as “somewhat faster”. The “influence of the compression force on dissolution” value (TMC125 compared with TMC114) is reported as “more influenced”.

Values taken from patent US20100190809A1, “COMBINATION FORMULATIONS” (priority 2007, published 2010).
